45 compounds from the Deep4Chem optical property database can be followed below.

This data set in a line: photoluminescence quantum yield (fraction); solvent given as SMILES.

Consider `COC(=O)C(Cc1ccc2oc(-c3ccc(-n4c5ccccc5c5ccccc54)cc3)nc2c1)NC(=O)OC(C)(C)C` (configuration not stated), for which the photoluminescence quantum yield runs as follows: (in C1CCCCC1) 0.94; (in C1CCOC1) 0.53; (in C1COCCO1) 0.62; (in CC1CCCO1) 0.52; (in CC#N) 0.46; (in CC(C)(C)O) 0.81. In addition, the photoluminescence quantum yield (in CC(C)=O) was determined as 0.44; the photoluminescence quantum yield (in CC(C)CC(C)(C)C) was 0.55; the photoluminescence quantum yield (in CC(C)O) stood at 0.59; the photoluminescence quantum yield (in CC(O)CO) was found to be 0.55; the photoluminescence quantum yield (in CCCCCCCO) is 0.65; the photoluminescence quantum yield (in CCCCCCO) came out at 0.73. The photoluminescence quantum yield was 0.77 (in CCCCCO); 0.69 (in CCCCO); 0.63 (in CCO); 0.54 (in CCOC(C)=O); 0.56 (in CCOCC); 0.58 (in CN(C)C=O). Also, the photoluminescence quantum yield amounted to 0.36 (in CO), 0.47 (in CS(C)=O), 0.69 (in Cc1ccccc1) and 0.52 (in OCCO).

Consider `COc1ccc(/C=C/C2=[O+][B-](F)(F)OC(/C=C/c3ccc(OC)cc3)=C2c2ccccc2)cc1`, for which the photoluminescence quantum yield is 0.42 (in CC#N); 0.41 (in CC(C)=O); 0.34 (in CCOC(C)=O); 0.27 (in CCOCC); 0.24 (in ClC(Cl)(Cl)Cl); 0.41 (in ClCCl).

For the compound `CN(C)c1ccc(/C=C/c2ccc(-c3nc(C#N)c(C#N)n3C)cc2)cc1`, the photoluminescence quantum yield reads like this: (in C1CCCCC1) 0.17; (in CC#N) 0.002; (in CO) 0.002; (in ClC(Cl)Cl) 0.16.

For `c1ccc(N(c2ccccc2)c2ccc(-c3ncc(-c4cnc(-c5ccc(N(c6ccccc6)c6ccccc6)cc5)s4)s3)cc2)cc1`, the photoluminescence quantum yield (in CO) was 0.2.

In turn, `CCN(CC)c1ccc2cc(-c3nc4cc(C(=O)Nc5ccc(C)cc5[N+](=O)[O-])ccc4o3)c(=O)oc2c1` showed a photoluminescence quantum yield (in ClCCl) of 0.43.

In turn, `CCn1c2ccc(-c3ccc(-c4cccs4)s3)cc2c2cc(-c3ccc(-c4cccs4)s3)ccc21` gave a photoluminescence quantum yield (in ClCCl) of 0.168.

Consider `C1=Cc2ccccc2C(=Cc2ccc(C=C3c4ccccc4C=Cc4ccccc43)cc2)c2ccccc21`, for which the photoluminescence quantum yield (in C1CCOC1) was found to be 5e-05.

On to `CC1(C)Cc2c(c3ccccc3c3nc4c(nc23)c2c(c3ccccc34)OC(C)(C)C2)O1`, for which the photoluminescence quantum yield was 0.43 (in C1CCCCC1); 0.53 (in C1COCCO1); 0.39 (in CC#N); 0.57 (in CC(C)O); 0.4 (in CCCCCC); 0.43 (in ClC(Cl)Cl). In addition, the photoluminescence quantum yield (in c1ccccc1) was determined as 0.39.

For the compound `CCOC(=O)c1sc2nc3c(c(C#N)c2c1N)CCCC3`, under “in c1ccccc1”, the photoluminescence quantum yield was found to be 0.046.

As for `CCCN1c2ccccc2Sc2cc(/C=C\c3cc(=O)oc4ccc(C)cc34)ccc21`, the photoluminescence quantum yield (in ClC(Cl)Cl) came out at 0.76.

For the compound `COc1cc(OC)cc(C2=[O+][B-](F)(F)OC(c3ccc4cc(OC)ccc4c3)=C2)c1`, the photoluminescence quantum yield was 0.22 (in CC#N); 0.37 (in CC(C)=O); 0.26 (in CCCCCC); 0.79 (in Cc1ccccc1); 0.95 (in ClCCl).

For the setting “in C1CCOC1”, `CCC1(CC)c2ccccc2-c2c1c1c(c3c2C(CC)(CC)c2cc(/C=C/c4cccs4)ccc2-3)C(CC)(CC)c2cc(/C=C/c3cccs3)ccc2-1` showed a photoluminescence quantum yield of 0.16.

The compound `CC(C)(C(=O)c1ccc(N2c3ccccc3Oc3ccccc32)cc1)C(=O)c1ccc(N2c3ccccc3Oc3ccccc32)cc1` returned a photoluminescence quantum yield (in c1ccc2c(c1)c1ccccc1n2-c1ccc(-c2ccc(-n3c4ccccc4c4ccccc43)cc2)cc1) of 0.54.

Turning to `C(#Cc1ncnc2ccccc12)c1ccc(N(c2ccccc2)c2ccccc2)cc1`, the photoluminescence quantum yield (in ClCCl) came to 0.03.

For the compound `CC(C)(C)c1cc2c3c(c1)c1cc(C(C)(C)C)cc4c1n3B1c3c-2cccc3-c2cc(C(C)(C)C)cc3c5cc(C(C)(C)C)cc-4c5n1c23`, for the setting “in C1CCOC1”, the photoluminescence quantum yield was 0.25.

For the compound `O=S(=O)([O-])c1ccc([O-])c2ccccc12`, under “in O”, the photoluminescence quantum yield worked out at 0.26.

On to `CC1(C)c2ccccc2N(c2cc3c4ccccc4n4c5ccccc5c(c2)c34)c2ccccc21`, for which, for the setting “in O=P(c1ccccc1)(c1ccccc1)c1ccccc1Oc1ccccc1P(=O)(c1ccccc1)c1ccccc1”, the photoluminescence quantum yield was found to be 0.95.

For `CCCC1=Cc2nc1ccc1[nH]c(cc1CCO)c1nc(ccc3[nH]c2cc3CCC)C(CCO)=C1`, for the setting “in Cc1ccccc1”, the photoluminescence quantum yield worked out at 0.4.

`CCCCCCN(CCCCCC)c1ccc(C#Cc2ccc(-c3ccc(C#Cc4ccc(N(CCCCCC)CCCCCC)cc4)cc3)cc2)cc1` showed a photoluminescence quantum yield (in Cc1ccccc1) of 0.87.

As to `Clc1ccc(/C=C(\c2ccccc2)c2nc3ccccc3o2)cc1`, the photoluminescence quantum yield (in CO) is 0.002.

For `c1ccc(-c2c3ccc(=[N+]4CCCCC4)cc-3oc3cc(N4CCCCC4)ccc23)cc1`, the photoluminescence quantum yield reads like this: (in CCO) 0.3; (in ClCCl) 0.89.

For `COc1ccc2cc(/C=C/C3=CC(c4ccccc4)=[O+][B-](F)(F)O3)ccc2c1`, for the setting “in ClCCl”, the photoluminescence quantum yield came to 0.43.

Where the note is “in CO”, `CC1=CC(/C=C/c2ccc(OCCCN=[N+]=[N-])cc2)=[N+]2C1=C(c1ccccc1)c1c(C)cc(C)n1[B-]2(F)F` came in with a photoluminescence quantum yield of 1.

Turning to `CCCCCCCCN1c2ccc(C#Cc3ccc(F)cc3)cc2Sc2cc(C=O)ccc21`, the photoluminescence quantum yield runs as follows: (in C1CCOC1) 0.64; (in CC#N) 0.24; (in CCCCCC) 0.48; (in CO) 0.07; (in CS(C)=O) 0.75; (in Cc1ccccc1) 0.52. For the setting “in ClC(Cl)Cl”, this compound came in with a photoluminescence quantum yield of 0.4.

Where the note is “in Cc1ccccc1”, `C[Si](C)(C)C#Cc1cc2ccc3cc(C#C[Si](C)(C)C)cc4ccc(c1)c2c34` showed a photoluminescence quantum yield of 0.19.

The compound `C(#Cc1cccc2ccccc12)c1ncc(-c2ccccc2)o1` gave a photoluminescence quantum yield (in ClCCl) of 0.28.

Take `Brc1ccc(-c2nc(-c3ccc(C#Cc4ccc(-n5c6ccccc6c6ccccc65)cc4)cc3)nc(-c3ccc(C#Cc4ccc(-n5c6ccccc6c6ccccc65)cc4)cc3)n2)cc1`: the photoluminescence quantum yield is, setting by setting: (in C1CCOC1) 0.68; (in CC#N) 0.02; (in CCCCCC) 0.9; (in Cc1ccccc1) 0.96; (in ClCCl) 0.65.

In turn, `CC(C)(C)c1ccc2c(c1)c1cc(C(C)(C)C)ccc1n2-c1ccc(C#Cc2ccc(C#Cc3ccc(C=C(C#N)C#N)cc3)cc2)cc1` returned a photoluminescence quantum yield (in ClCCl) of 0.3.

With `C[Si]1(C)O[Si](C)(C)c2cc3c(-c4ccccc4)c4cc([N+](=O)[O-])ccc4nc3cc21`, the photoluminescence quantum yield (in ClCCl) came out at 0.3.

Compound `Cc1cccc(C2=Cc3c4ccccc4cc[n+]3[B-](F)(F)O2)c1` returned a photoluminescence quantum yield (in ClC(Cl)Cl) of 0.06.

`COc1ccc(C#Cc2c3cc4ccccc4cc3c(C#Cc3ccc(OC)cc3)c3cc4sc(C)cc4cc23)cc1`: the photoluminescence quantum yield (in ClCCl) stood at 0.64.

As for `CC(C)(C)c1ccc(N(c2ccc(C(C)(C)C)cc2)c2ccc(S(=O)(=O)c3ccc(N(c4ccc(C(C)(C)C)cc4)c4ccc(C(C)(C)C)cc4)cc3)cc2)cc1`, the photoluminescence quantum yield (in Cc1ccccc1) worked out at 0.65.

Turning to `CCC(C)(C)c1ccc(-c2ccc3c(c2)C(CCOC)(CCOC)c2cc4c(cc2-3)C(CCOC)(CCOC)c2cc(-c3ccc(C(C)(C)CC)cc3)ccc2-4)cc1`, the photoluminescence quantum yield (in C1CCCCC1) is 0.86.

The compound `CCOC(=O)c1cc(C(=O)OCC)c2ccccc2n1` displayed a photoluminescence quantum yield (in CCO) of 0.006.

In turn, `Cc1nc2c(cc3c4c(cccc42)C(=O)OC3=O)o1` returned a photoluminescence quantum yield (in CCO) of 0.073.

Take `CC(=O)N(Cc1ccccn1)c1c2ccccc2c2c3c(cccc13)C(=O)N(Cc1ccccn1)C2=O`: the photoluminescence quantum yield (in C1CCOC1) stood at 0.36; the photoluminescence quantum yield (in CCCCCC) was 0.59; the photoluminescence quantum yield (in CCO) stood at 0.35; the photoluminescence quantum yield (in Cc1ccccc1) came out at 0.52; the photoluminescence quantum yield (in ClCCl) was determined as 0.48.

With `C(=C\c1ccncn1)/c1ccc(-c2ccco2)cc1`, the photoluminescence quantum yield (in ClCCl) amounted to 0.01.

For `CCCCN1C(=O)c2cc(Oc3ccc(C(C)(C)C)cc3)c3c4c(Oc5ccc(C(C)(C)C)cc5)c(Oc5ccc(C(C)(C)C)cc5)c5c6c(cc(Oc7ccc(C(C)(C)C)cc7)c(c7c(Oc8ccc(C(C)(C)C)cc8)c(Oc8ccc(C(C)(C)C)cc8)c(c2c37)C1=O)c64)C(=O)N(CCCC)C5=O`, for the setting “in ClC(Cl)Cl”, the photoluminescence quantum yield stood at 0.75.

In turn, `F[B-]1(F)n2c(Cl)c(Cl)c(Br)c2C(Cl)=C2C(Br)=C(Cl)C(Cl)=[N+]21` yielded a photoluminescence quantum yield (in ClCCl) of 0.18.

`CC(C)(C)c1cc2ccc3cc(C(C)(C)C)cc4c(N(c5ccccc5)c5ccccc5)cc(c1)c2c34` displayed a photoluminescence quantum yield (in CCCCCC) of 0.24.

With `COC(=O)c1nc2c(N(C)C)nc(N)nc2n1Cc1ccccc1`, the photoluminescence quantum yield is, setting by setting: (in C1COCCO1) 0.95; (in CC#N) 0.83; (in CO) 0.39; (in ClCCl) 0.95.

As for `COCCOCCOCCOCC(COCCOCCOCCOC)Oc1cc(/C=C/c2ccc(C=C(C#N)C#N)cc2)c(OC(COCCOCCOCCOC)COCCOCCOCCOC)cc1/C=C/c1ccc(C=C(C#N)C#N)cc1`, where the note is “in ClCCl”, the photoluminescence quantum yield amounted to 0.53.

`Cc1cc(C)c2cc3cc(C)ncc3cc2c1` displayed a photoluminescence quantum yield (in CCO) of 0.44.

Under “in ClCCl”, `CCCCCCN1C(=O)c2cccc3c(-c4ccc(-c5cc(-c6ccc(C)cc6)n(-c6ccccc6)n5)s4)ccc(c23)C1=O` came in with a photoluminescence quantum yield of 0.36.

Turning to `COC(=O)c1[nH]c(-c2ccc(OC)cc2)c2nnc3ccc(OC)cc3c12`, for the setting “in ClCCl”, the photoluminescence quantum yield was 0.282.
